Test results from US11911406B2, “PH-responsive polymer-drug conjugates for enhanced antibacterial efficacy” (priority 2020, dated 2024).
In brackets after ≈: the same amount, converted by molar mass.

Assays:
[1] = tested on: E. coli (ATCC 25922); experiment: MIC, broth microdilution; format: cell-based; details: 24 h, no pH given
Protocol: (§1) Bacterial strains. S. aureus Newman was kindly provided by Prof Douglas Weibel; E. coli ATCC25922, S. aureus ATCC 33591 and P. aeruginosa ATCC 27853 were kindly donated by Prof. David Andes. E. coli DH5a was purchased from Thermo Fisher. The bacteria above were grown in Mueller Hinton Broth (MHB) media (Criterion, Santa Maria, Calif., USA). M. smegmatis mc^2155 strain was kindly donated by Prof. Adel M. Talaat, and was grown in Middlebrook 7H9 broth (HiMedia, West Chester, Pa., USA).
(§2) Minimal inhibitory concentration (MIC) measurements. The MIC of the different treatments on various bacteria strains was determined using the broth microdilution method. Briefly, 100 μL of the respective broth media containing serial twofold dilutions of each compound was placed into a 96-well tissue culture plate. Each bacterial strain was taken from an exponentially growing culture and diluted to 5×10^6 CFU/mL. 10 μL of such microbial suspension was inoculated in each well of the plate, resulting in a final bacteria concentration of approximately 5×10^5 CFU/mL. The bacteria were cultured at 37° C. for 24 h and their growth were observed by reading the optical density (OD) at 600 nm. The MIC was determined as the treatment concentration at which no microbial growth was observed. Broth containing microbial cells alone was used as a positive control and broth without bacteria inoculation was used as a negative control. Each test was carried out in 3 replicates.

[2] = tested on: E. coli (DH5 alpha); experiment: MIC, broth microdilution; format: cell-based; details: 24 h, no pH given
Protocol: as §1, §2

[3] = tested on: M. smegmatis (MC^2 155); experiment: MIC, broth microdilution; format: cell-based; details: 24 h, no pH given
Protocol: as §1, §2

[4] = tested on: P. aeruginosa (ATCC 27853); experiment: MIC, broth microdilution; format: cell-based; details: 24 h, no pH given
Protocol: as §1, §2

[5] = tested on: S. aureus (MRSA ATCC33591); experiment: MIC, broth microdilution; format: cell-based; details: 24 h, no pH given
Protocol: as §1, §2

[6] = tested on: S. aureus (Newman); experiment: MIC, broth microdilution; format: cell-based; details: 24 h, no pH given
Protocol: as §1, §2

[7] = tested on: E. coli biofilm; experiment: Biofilm inhibition assay (crystal violet); format: cell-based; details: 512 μg/mL free streptomycin, 24 h
Protocol: (§3) Biofilm inhibition assays. Exponentially growing bacteria were inoculated into 96 well plates (1×10^4 cell/well) containing MHB broth with 2% (v/w) glucose, incubated under stationary conditions at 37° C. for one day. After biofilm formation, the media was discarded and the plates were washed with PBS to remove the planktonic bacteria. Fresh NMB broth containing serially diluted free streptomycin or PDC were added to the plates and incubated at 37° C. for another 24 h. The media in each well was then removed, and the plates were washed carefully with PBS for 1 time. The biofilm in each well was fixed with 95% ethanol for 15 min and stained with 0.1% crystal violet for 15 min. After washing with Milli-Q water for three times, 33% v/v acetic acid (100 μL/well) was added to solubilize the crystal violet staining. OD 560 in each well was read to determine the biofilm formation. The biofilm formed as described above was also stained with acridine orange and Cy5 labeled PDC, and monitored by CLSM to observe the PDC penetration.

[8] = tested on: P. aeruginosa biofilm; experiment: Biofilm inhibition assay (crystal violet); format: cell-based; details: 256 μg/mL streptomycin
Protocol: as §3

[9] = tested on: MRSA biofilm; experiment: Biofilm inhibition assay (crystal violet); format: cell-based, S. aureus; details: 512 μg/mL free streptomycin, 24 h
Protocol: as §3

[10] = tested on: E. coli ATCC 25922; experiment: Evaluation of antibiotic resistance development (serial passaging); format: cell-based; details: sub-lethal dose (0.5 MIC)
Protocol: Evaluation of antibiotic resistance development. E. coli ATCC 25922 was employed to study the drug resistance development under sublethal dose treatments of free streptomycin, cationic polymer or the PDC. During a serial of passages, the MIC of each treatment was measured by the broth microdilution method as described above, and the bacteria were exposed to ½MIC at that particular passage. MIC for each passage was recorded and normalized to that of the first passage to determine the drug resistance enhancement.

[11] = tested on: P. aeruginosa in Raw 264.7 macrophage; experiment: Antibacterial activity for intracellular infection; format: cell-based; details: Raw 264.7 infected with P. aeruginosa, pH 7.4 and 6.0, 1 day
Protocol: Antibacterial activity for intracellular infection. The antibacterial activity for intracellular infection was tested following the previous report. Briefly, macrophage Raw 264.7 cells were seeded in 96-well plate at a density of 1×10^4 cell/swell overnight and infected with MRSA or P. aeruginosa at a ratio of 10-20 bacteria per macrophage in FBS free RPMI 1640 medium. After 3 h incubation, the cells were washed and cultured in 1640 medium containing 10% FBS and 50 μg/mL gentamycin for one day to prevent the growth of extracellular bacteria. Then the macrophages were treated with free streptomycin or PDC for another day and lysed with Milli-Q water supplemented with 0.1% Triton-X. The cell lysates were serially diluted and the CFU in each well was determined by plating on MHB agar plates.

[12] = tested on: P. aeruginosa ATCC 27853; experiment: Mouse lung infection model; format: in vivo, ICR mice; details: 2 i.v. injections (1 h and 8 h after the infection)
Protocol: Mouse lung infection model. […] In another experiment of monitoring the mice survival for the lung infection model, the P. aeruginosa infected mice were given 2 treatments (1 h and 8 h after the infection) and their survival was observed using Kaplan-Meier curves (n=5).

[13] = tested on: E. coli ATCC 25922; experiment: Live/Dead bacterial staining assay (AO/EB); format: cell-based; details: 0.5 h and 3 h
Protocol: Live/Dead bacterial staining assay. Exponentially growing bacteria (E. coli ATCC 25922) were collected by centrifugation at 8000 rpm for 5 min, washed with saline and diluted to OD 600 value of 0.5. The bacterial suspensions were incubated with different treatments at 37° C. for 0.5 h and 3 h, and then washed with saline and stained by acridine orange (10 μg/mL) and ethidium bromide (EB, […]) solution for 15 min. Afterward, the bacteria were collected via centrifugation, washed with saline for 2 times, resuspended in 70% glycerol and spread on glass slides. The live/dead bacteria were observed by a confocal laser scanning microscope (CLSM).

[14] = tested on: human red blood cells; experiment: Hemolysis assay; format: cell-based
Protocol: Hemolysis assay. […] The antibacterial polymer and PDC with different charges were serial diluted with PBS and placed in 96-well plates (100 μL/well). The blood cell suspension (10 μL/well) was added into the wells and incubated at 37° C. for 1 h to allow the complete hemolysis process. […] Following centrifugation at 3000 rpm for 7 min, the supernatant (70 μL/well) was transferred to another clean 96-well plate. OD 560 in each well was monitored by a microplate reader, and hemolysis was calculated using the following formula: […]

[15] = tested on: HEK 293 human embryonic kidney cells; experiment: Cell viability test (MTT cytotoxicity); format: cell-based; details: 48 h, no pH given
Protocol: Cell viability test. Cytotoxicity of different components was tested through MTT assays. HEK 293 human embryonic kidney cells were seeded onto a 96-well plate (1×10^4 cells/well) and cultured overnight. The cells were then treated with various polymers or PDCs with serial dilutions for 48 h and their viability was measured by a standard MTT assay. Data were collected by monitoring the difference between the absorbance at 560 nm and 650 nm using a GloMax-Multi Microplate Multimode Reader (Promega, Wis., USA).

[16] = tested on: broad spectrum of microbes; experiment: MIC, broth microdilution, across the strains tested; format: cell-based; details: E. coli, MRSA, P. aeruginosa (FIGS. 3G-I)
Protocol: as §1
as §2, with “Broth containing microbial cells alone was used as a positive control and broth without bacteria inoculation was used as a negative control. Each test was carried out in 3 replicates.” left out

[H]/N=C(/N)N[C@H]1[C@H](O)[C@@H](O)[C@H](O[C@@H]2O[C@@H](C)[C@](O)(C=O)[C@H]2O[C@@H]2O[C@@H](CO)[C@H](O)[C@@H](O)[C@@H]2NC)[C@@H](N/C(N)=N\[H])[C@@H]1O [Streptomycin, streptomycin, reference compound]
MIC ([1]; Escherichia coli, ATCC25922): 8 µg/mL (≈ 13.8 µM)
MIC ([2]; Escherichia coli): 8 µg/mL (≈ 13.8 µM)
MIC ([3]; Mycolicibacterium smegmatis, MC^2155): 0.5 µg/mL (≈ 0.86 µM)
MIC ([4]; Pseudomonas aeruginosa, ATCC27853): 16 µg/mL (≈ 27.5 µM)
MIC ([5]; Staphylococcus aureus): 16 µg/mL (≈ 27.5 µM)
MIC ([6]; Staphylococcus aureus, NEWMAN): 16 µg/mL (≈ 27.5 µM)
biofilm remaining [7]: more than 50%
biofilm reduced / removed [8]: 75%
biofilm remaining [9]: more than 50%
increase in MIC after 20 passages [10]: 10 fold
antibacterial efficacy on intracellular bacteria (CFU), in words [11]: did not show much therapeutic efficacy
mice rescued (survival) [12]: 40%
bactericidal effect / EB staining, in words [13]: little EB infiltration at 3 h

Hex-Cys-Cys-DET2 polymer [Positively-charged polymer]
hemolytic activity, in words [14]: only induced hemolysis at a high level of 10 mg/mL

Hex-Cys-Cys-DET-DMA [Neutralized polymer]
hemolytic activity, in words [14]: did not show any hemolytic activity

Hex-Cys-Cys-DET-strep [Positively-charged PDC]
MIC E. coli (ATCC 25922) [1]: 20 µg/mL
MIC E. coli (DH5 alpha) [2]: 20 µg/mL
MIC M. smegmatis (MC^2 155) [3]: 1.25 µg/mL
MIC P. aeruginosa (ATCC 27853) [4]: 20 µg/mL
MIC S. aureus (MRSA ATCC33591) [5]: 20 µg/mL
MIC S. aureus (Newman) [6]: 10 µg/mL
HEK293 IC50 [15]: >2000 µg/mL
effect of pH (6.0 vs 7.4) on MIC, in words [16]: MICs were unaffected by pH variation
